Measured values from US10265298B2, “Method of increasing the bioavailability of silybin” (Macau University of Science and Technology, priority 2017, dated 2019).

Key:
MDR1 (P-gp) = MDR1 (P-gp) (Homo sapiens, UniProt P08183); assay: Transport of silybin across MDCKII-MDR1 cells; conditions: for net efflux ratio: absence of any inhibitor
Protocol: Parental Madin-Darby canine kidney II (MDCKII), multi-drug resistance gene 1-Madin-Darby canine kidney II (MDR1-MDCKII), breast cancer resistance protein-Madin-Darby canine kidney II (BCRP-MDCKII), and multi-drug resistance protein 2-Madin-Darby canine kidney II (MRP2-MDCKII) cells were kindly provided by the Netherlands Cancer Institute (Amsterdam, Netherlands) and frozen at −80° C. The MDCKII cells were cultured at 37° C./5% CO2 in Dulbecco's modified Eagle's medium supplemented with 10% fetal bovine serum, 1% nonessential amino acids, and 2% penicillin-streptomycin. The cells were seeded on transwell inserts (Corning Inc.) at a density of 2.0×10^5 cells/cm^2 and grown for 4-5 days to form confluent monolayers. […]
Bidirectional transport assays in human colorectal adenocarcinoma 2 (Caco-2) and Madin-Darby canine kidney II (MDCK II) was carried out by dosing substrates in assay buffer to either the apical chamber (A-to-B) or the basolateral chamber (B-to-A); cells were then incubated at 37° C. with shaking at 50 rotations per minute (rpm), and 100 μl samples were collected at 30, 60, 90, 120 and 180 minutes from the basolateral chamber to study the drug transport of AP to BL, or apical chamber to study the drug transport of BL to AP. […] For fluorescence intensity detection, samples collected from AP or BL side were immediately detected in 96 well black plate by Microplate ultraviolet-visible spectroscopy (UV/VIS) spectrophotometer (TECAN infinite M200 PRO, Männedorf, Switzerland). […]
The apparent permeability coefficients (Papp) were calculated as Papp=dQ/dt×1/(C“0”A) where dQ/dt (mM/sec) is the rate of permeation of the drug across the cells, C0 (millimolar (mM)) is the donor compartment concentration at time zero and A (cm^2) is the area of the cell monolayer. […] Efflux Ratio (ER)=Papp (B to A)/Papp (A to B), while Papp (B−A) is the Papp value measured in the B to A direction, and Papp (A−B) is the Papp value measured in the A to B direction. […]

[1] = in vivo, po; for Cmax of free silybin / mean Cmax of total silybin (parent plus sulfate and glucuronide conjugates): rat
Protocol: The rats were randomly divided into three groups with six rats in each group. The oral administration dosages of silybin were 10 and 50 mg/10 ml/kg body weight without or with baicalein/tangeretin at the same dosage. Before experimentation, the animals were fasted for 24 hours with water ad libitum, and maintained at a temperature of 21° C. with 70% relative humidity and a 12 hour light/dark cycle. After oral administration, tail vein blood samples were collected (0.1 ml) into heparinized 0.65 ml micro-centrifuge tubes at the following time intervals: 0, 15, 30, 45, 60, 90, 120, 240, 360, 480, and 720 minutes. The blood samples then were immediately centrifuged at 4,000 rotations per minute (rpm) for 15 minutes at 4 degrees Celsius (° C.), and the resulting plasma was collected and stored at −80° C. until analysis.
To estimate the concentration of total glucuronide and sulfate conjugates of silybin in bio-samples including plasma, cell, and media, enzymatic hydrolysis with […] (8000 U/ml) and sulfatase (80 units per milliliter (U/ml)) was performed with 10 microliter (μl) aliquot of samples. The reactions were terminated by the addition of 40 μl of ice-cold acetonitrile containing 1% glacial acetic acid and internal standard NG (25 ng/ml). After centrifugation at 13,500 rotations per minute (rpm) for 15 minutes at 4° C., the supernatants were evaporated to dryness by nitrogen evaporator, and the residue was reconstituted with 60 μl of 30% methanol in water containing 1% ascorbic acid. An aliquot of 10 μl of the final solution was injected into LC-MS/MS for analysis. The completion of de-conjugation reaction was monitored by mass spectrometry. In parallel, 10 μl aliquots of samples without enzymes were treated with 40 μl of ice-cold acetonitrile containing 1% glacial acetic acid and naringenin (NG) (25 nanogram per milliliter (ng/ml)) to determine the concentration of free silybin. The total concentrations of glucuronides and sulfates in samples were estimated from the difference between the amount of silybin released by incubation with both glucuronidase and sulfatase and the amount of free silybin without enzymes incubation.
The analysis of silybin and total concentrations of glucuronides and sulfates was performed on an Agilent HP 1100 LC-MS system (Agilent, CA). A Waters ACQUITY UPLC® BEH C18 Column (1.7 μm, 2.1×50 mm, Waters Corp., Ireland) was used for detection with a C18 Security Guard cartridge (4×2.0 mm i.d., Phenomenex, Torrance, Calif.). Silybin A and silybin B were well separated using optimized gradient elution with methanol (mobile phase B) and 0.1% formic acid in water (mobile phase A) as mobile phase at a flow rate of 0.4 ml/min with a run time of 10 minutes. The gradient employed was as follows (time: mobile phase B percentage): 0 min: 25%, 6 minutes: 40%, 6.5 minutes: 25%.
Pharmacokinetic parameters including half-life (T1/2), volume of distribution (Vd), oral clearance (CL/F), and area under the concentration-time curve (AUC) were calculated using the software package PK Solutions 2.0.2 (SUMMIT Co., Ashland, Ohio, USA) with non-compartment analysis. One-way analysis of variance (ANOVA) was used when multiple groups were compared and the Bonferroni post hoc correction was used to accommodate multiple testing. The two-sided unpaired Student's t-test was used when treatments or differences between two groups were compared. […] During all statistical analyses, differences in group sizes were considered in the calculations. Differences were considered statistically significant when P<0.05. All data is presented as geometric mean±S.D.

MRP2 = MRP2 (Homo sapiens, UniProt Q92887); type: in vitro ADME; parameters: host or cells: MDCKII (Madin-Darby canine kidney II); conditions: for mean net efflux ratio: Caco-2
Protocol: In all cases, each determination was performed in triplicate.
1.5 Preparation of Rat Sandwich-Cultured Hepatocytes

MRP2, sequence (Q92887 whole entry): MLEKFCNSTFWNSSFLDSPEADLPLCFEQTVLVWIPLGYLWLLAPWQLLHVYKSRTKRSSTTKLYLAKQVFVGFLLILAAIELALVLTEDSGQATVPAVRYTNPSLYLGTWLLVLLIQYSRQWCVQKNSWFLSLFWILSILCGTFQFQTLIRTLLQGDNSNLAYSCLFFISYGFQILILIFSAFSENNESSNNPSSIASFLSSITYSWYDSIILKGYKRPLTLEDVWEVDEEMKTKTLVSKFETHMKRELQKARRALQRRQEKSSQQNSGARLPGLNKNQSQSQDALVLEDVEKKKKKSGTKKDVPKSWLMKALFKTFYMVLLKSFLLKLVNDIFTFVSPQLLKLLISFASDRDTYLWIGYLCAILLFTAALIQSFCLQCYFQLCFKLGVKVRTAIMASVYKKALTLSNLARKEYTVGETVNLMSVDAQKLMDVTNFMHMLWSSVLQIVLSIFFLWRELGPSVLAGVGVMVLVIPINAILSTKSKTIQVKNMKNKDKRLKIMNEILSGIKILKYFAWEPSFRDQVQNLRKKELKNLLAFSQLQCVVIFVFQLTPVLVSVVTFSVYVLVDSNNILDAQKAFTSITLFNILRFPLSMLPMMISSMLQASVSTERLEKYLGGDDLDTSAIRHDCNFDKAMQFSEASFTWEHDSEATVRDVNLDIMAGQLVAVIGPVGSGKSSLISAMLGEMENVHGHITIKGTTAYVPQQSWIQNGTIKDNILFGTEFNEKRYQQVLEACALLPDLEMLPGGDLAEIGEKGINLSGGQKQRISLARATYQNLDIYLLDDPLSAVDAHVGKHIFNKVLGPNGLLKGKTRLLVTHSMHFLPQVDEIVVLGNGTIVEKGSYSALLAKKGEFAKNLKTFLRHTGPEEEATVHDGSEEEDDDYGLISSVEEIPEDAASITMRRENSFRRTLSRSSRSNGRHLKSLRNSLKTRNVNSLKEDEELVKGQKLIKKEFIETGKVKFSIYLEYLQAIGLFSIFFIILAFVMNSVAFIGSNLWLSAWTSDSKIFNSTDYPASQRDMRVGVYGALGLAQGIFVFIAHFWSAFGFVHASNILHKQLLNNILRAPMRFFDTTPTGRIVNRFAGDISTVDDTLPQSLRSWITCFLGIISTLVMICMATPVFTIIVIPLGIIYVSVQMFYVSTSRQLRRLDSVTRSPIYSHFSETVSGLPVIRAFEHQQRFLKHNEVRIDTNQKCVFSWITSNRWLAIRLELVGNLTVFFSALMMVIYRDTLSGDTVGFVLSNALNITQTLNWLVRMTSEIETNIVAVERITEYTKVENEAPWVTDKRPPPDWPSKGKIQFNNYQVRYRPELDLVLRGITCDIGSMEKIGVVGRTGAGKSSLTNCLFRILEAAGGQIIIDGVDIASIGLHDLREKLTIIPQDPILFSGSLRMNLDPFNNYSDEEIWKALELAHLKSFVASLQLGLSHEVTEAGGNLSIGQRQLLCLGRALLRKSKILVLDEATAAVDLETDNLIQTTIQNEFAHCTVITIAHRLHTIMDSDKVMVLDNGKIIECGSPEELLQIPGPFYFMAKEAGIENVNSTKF
MDR1 (P-gp), sequence (P08183 whole entry): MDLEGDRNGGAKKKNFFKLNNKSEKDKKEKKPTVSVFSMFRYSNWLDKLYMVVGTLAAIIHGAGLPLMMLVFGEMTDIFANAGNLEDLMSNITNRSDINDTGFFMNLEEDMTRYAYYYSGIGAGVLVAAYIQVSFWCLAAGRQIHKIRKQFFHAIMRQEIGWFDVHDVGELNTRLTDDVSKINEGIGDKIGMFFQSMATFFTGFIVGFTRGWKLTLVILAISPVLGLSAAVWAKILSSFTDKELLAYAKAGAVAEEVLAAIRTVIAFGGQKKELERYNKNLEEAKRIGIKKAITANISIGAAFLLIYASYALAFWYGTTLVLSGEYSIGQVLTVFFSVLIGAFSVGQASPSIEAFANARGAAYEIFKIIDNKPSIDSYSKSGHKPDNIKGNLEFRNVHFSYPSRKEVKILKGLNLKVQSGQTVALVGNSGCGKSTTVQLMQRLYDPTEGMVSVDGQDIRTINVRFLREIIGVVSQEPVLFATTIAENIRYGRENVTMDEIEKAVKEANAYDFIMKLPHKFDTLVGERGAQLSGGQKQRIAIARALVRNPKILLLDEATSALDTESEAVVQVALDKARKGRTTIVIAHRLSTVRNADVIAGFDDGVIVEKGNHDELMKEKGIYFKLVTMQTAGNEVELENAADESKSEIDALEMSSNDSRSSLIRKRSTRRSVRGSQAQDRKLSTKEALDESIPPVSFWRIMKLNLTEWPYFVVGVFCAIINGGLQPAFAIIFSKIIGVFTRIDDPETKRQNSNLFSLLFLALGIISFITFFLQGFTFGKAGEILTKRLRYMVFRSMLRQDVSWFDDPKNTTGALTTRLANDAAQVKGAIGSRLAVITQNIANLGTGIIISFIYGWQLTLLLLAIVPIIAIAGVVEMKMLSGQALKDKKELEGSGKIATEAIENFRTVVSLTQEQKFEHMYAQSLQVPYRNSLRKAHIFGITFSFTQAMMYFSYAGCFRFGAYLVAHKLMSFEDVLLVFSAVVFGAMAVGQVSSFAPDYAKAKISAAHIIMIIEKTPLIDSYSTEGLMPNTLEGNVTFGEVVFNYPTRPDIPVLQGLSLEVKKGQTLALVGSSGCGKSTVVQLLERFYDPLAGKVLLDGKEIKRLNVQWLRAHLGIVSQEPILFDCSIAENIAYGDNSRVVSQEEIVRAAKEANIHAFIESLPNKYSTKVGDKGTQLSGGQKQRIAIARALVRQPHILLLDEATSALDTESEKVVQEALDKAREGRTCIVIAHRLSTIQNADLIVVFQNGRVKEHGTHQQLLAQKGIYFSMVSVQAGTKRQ

Row | net efflux ratio (MDR1 (P-gp)) | fraction existing as conjugates in rat plasma [1] | Cmax of free silybin [1] [ng/mL] | mean Cmax of total silybin (parent plus sulfate and glucuronide conjugates) [1] [ng/mL] | mean net efflux ratio (MRP2) | Compound | MDR1 (P-gp) substrate status (MDR1 (P-gp); dog, MDCK-MDR1, 180 min, 10 µM) | MRP2 substrate status (MRP2; dog, 180 min, 10 µM)
1 | 1.39 | about 97% | 26 ± 13 | 1109 ± 158 | 3.06 | COc1cc([C@H]2Oc3cc([C@H]4Oc5cc(O)cc(O)c5C(=O)[C@@H]4O)ccc3O[C@@H]2CO)ccc1O [silybin A] | – | –
2 | 1.20 | ~99% | 16 ± 5 | 2478 ± 284 | 3.30 | COc1cc([C@@H]2Oc3cc([C@H]4Oc5cc(O)cc(O)c5C(=O)[C@@H]4O)ccc3O[C@H]2CO)ccc1O [silybin B] | – | –
3 | – | – | – | – | – | COc1cc(C2Oc3cc([C@H]4Oc5cc(O)cc(O)c5C(=O)[C@@H]4O)ccc3OC2CO)ccc1O (stereo partly drawn) [silybin] | is not a substrate for MDR1 (P-gp) efflux transporter | is a MRP2 substrate
